Key:
SF-539 = test: Growth inhibition of human SF539 cells incubated for 48 hrs by sulforhodamine B assay; type: functional, cell-based; conditions: SF-539, 48 h
SF-295 [1] = test: Growth inhibition of human SF295 cells assessed as cell growth at 1 uM incubated for 48 hrs by sulforhodamine B assay relative to control; type: functional; conditions: SF-295, 48 h, read-out: Activity
PC-3 = test: Growth inhibition of human PC3 cells assessed as cell growth at 100 uM incubated for 48 hrs by sulforhodamine B assay relative to control; type: functional; conditions: PC-3, 48 h, read-out: Activity
SR = test: Growth inhibition of human SR cells assessed as cell growth at 0.01 uM incubated for 48 hrs by sulforhodamine B assay relative to control; type: functional; conditions: read-out: Activity
HCC 2998 = test: Growth inhibition of human HCC2998 cells assessed as cell growth at 0.01 uM incubated for 48 hrs by sulforhodamine B assay relative to control; type: functional; conditions: HCC 2998, 48 h, read-out: Activity
HCT-116 = test: Growth inhibition of human HCT116 cells assessed as cell growth at 0.1 uM incubated for 48 hrs by sulforhodamine B assay relative to control; type: functional; conditions: HCT-116, 48 h, read-out: Activity
Hs-578T = test: Growth inhibition of human Hs578T cells assessed as cell growth at 1 uM incubated for 48 hrs by sulforhodamine B assay relative to control; type: functional; conditions: read-out: Activity
MCF7 = test: Growth inhibition of human MCF7 cells incubated for 48 hrs by sulforhodamine B assay; type: functional, cell-based; conditions: MCF7, 48 h
BT-549 = test: Growth inhibition of human BT549 cells assessed as cell growth at 1 uM incubated for 48 hrs by sulforhodamine B assay relative to control; type: functional; conditions: BT-549, 48 h, read-out: Activity
HCT-15 [2] = test: Growth inhibition of human HCT15 cells assessed as cell growth at 1 uM incubated for 48 hrs by sulforhodamine B assay relative to control; type: functional; conditions: HCT-15, 48 h, read-out: Activity
SNB-75 = test: Growth inhibition of human SNB75 cells assessed as cell growth at 100 uM incubated for 48 hrs by sulforhodamine B assay relative to control; type: functional; conditions: SNB-75, 48 h, read-out: Activity
786-0 = test: Growth inhibition of human 786-0 cells assessed as cell growth at 100 uM incubated for 48 hrs by sulforhodamine B assay relative to control; type: functional; conditions: 786-0, 48 h, read-out: Activity
RPMI-8226 = test: Growth inhibition of human RPMI8226 cells assessed as cell growth at 1 uM incubated for 48 hrs by sulforhodamine B assay relative to control; type: functional; conditions: RPMI-8226, 48 h, read-out: Activity
DU-145 = test: Growth inhibition of human DU145 cells incubated for 48 hrs by sulforhodamine B assay; type: functional, cell-based; conditions: DU-145, 48 h
SF-268 [3] = test: Growth inhibition of human SF268 cells assessed as cell growth at 1 uM incubated for 48 hrs by sulforhodamine B assay relative to control; type: functional; conditions: SF-268, 48 h, read-out: Activity
UACC-257 = test: Growth inhibition of human UACC257 cells assessed as cell growth at 0.1 uM incubated for 48 hrs by sulforhodamine B assay relative to control; type: functional; conditions: UACC-257, 48 h, read-out: Activity
OVCAR-3 [4] = test: Growth inhibition of human OVCAR3 cells assessed as cell growth at 0.1 uM incubated for 48 hrs by sulforhodamine B assay relative to control; type: functional; conditions: OVCAR-3, 48 h, read-out: Activity
U-251 = test: Growth inhibition of human U251 cells assessed as cell growth at 1 uM incubated for 48 hrs by sulforhodamine B assay relative to control; type: functional; conditions: U-251, 48 h, read-out: Activity
NCI-H460 = test: Growth inhibition of human NCI-H460 cells assessed as cell growth at 0.1 uM incubated for 48 hrs by sulforhodamine B assay relative to control; type: functional; conditions: NCI-H460, 48 h, read-out: Activity
T47D = test: Growth inhibition of human T47D cells assessed as cell growth at 0.01 uM incubated for 48 hrs by sulforhodamine B assay relative to control; type: functional; conditions: read-out: Activity
HT-29 = test: Growth inhibition of human HT-29 cells assessed as cell growth at 0.01 uM incubated for 48 hrs by sulforhodamine B assay relative to control; type: functional; conditions: HT-29, 48 h, read-out: Activity
HOP-62 = test: Growth inhibition of human HOP62 cells assessed as cell growth at 1 uM incubated for 48 hrs by sulforhodamine B assay relative to control; type: functional; conditions: HOP-62, 48 h, read-out: Activity
NCI-H522 = test: Growth inhibition of human NCI-H522 cells assessed as cell growth at 10 uM incubated for 48 hrs by sulforhodamine B assay relative to control; type: functional; conditions: NCI-H522, 48 h, read-out: Activity
HCT-15 [5] = test: Growth inhibition of human HCT15 cells assessed as cell growth at 100 uM incubated for 48 hrs by sulforhodamine B assay relative to control; type: functional; conditions: HCT-15, 48 h, read-out: Activity
M14 = test: Growth inhibition of human M14 cells assessed as cell growth at 100 uM incubated for 48 hrs by sulforhodamine B assay relative to control; type: functional; conditions: M14, 48 h, read-out: Activity
NCI-H226 = test: Growth inhibition of human NCI-H226 cells assessed as cell growth at 0.1 uM incubated for 48 hrs by sulforhodamine B assay relative to control; type: functional; conditions: NCI-H226, 48 h, read-out: Activity
UO-31 = test: Growth inhibition of human UO31 cells assessed as cell growth at 100 uM incubated for 48 hrs by sulforhodamine B assay relative to control; type: functional; conditions: UO-31, 48 h, read-out: Activity
OVCAR-3 [6] = test: Growth inhibition of human OVCAR3 cells assessed as cell growth at 100 uM incubated for 48 hrs by sulforhodamine B assay relative to control; type: functional; conditions: OVCAR-3, 48 h, read-out: Activity
COLO 205 = test: Growth inhibition of human COLO205 cells assessed as cell growth at 100 uM incubated for 48 hrs by sulforhodamine B assay relative to control; type: functional; conditions: COLO 205, 48 h, read-out: Activity
SF-268 [7] = test: Growth inhibition of human SF268 cells assessed as cell growth at 0.1 uM incubated for 48 hrs by sulforhodamine B assay relative to control; type: functional; conditions: SF-268, 48 h, read-out: Activity
SF-295 [8] = test: Growth inhibition of human SF295 cells incubated for 48 hrs by sulforhodamine B assay; type: functional, cell-based; conditions: SF-295, 48 h
[9] = read-out: LC50 (the source's name)
[10] = read-out: pLC50 (the source's name) (converted)

In the case of `COc1cc(Cl)cc(-c2nn(-c3cccc(NC(=O)c4ccc(N5CCOCC5)c(C(F)(F)F)c4)c3)cc2-c2ccncc2)c1`, the GI50 (SF-539; read-out: GI50) is reported as 3.74 µM, the CC50 (SF-539; [9]) is reported as over 100 µM and the TGI (SF-539; read-out: TGI) is reported as over 100 µM. For the same compound, the GI50 (SF-539; read-out: pGI50 (converted)) was 3.72 µM, the CC50 (SF-539; [10]) was over 100 µM and the TGI (SF-539; read-out: pTGI (converted)) was over 100 µM. For the same compound, the growth at 1 µM (SF-295 [1]) was 73%, the growth at 100 µM (PC-3) was 19% and the growth at 0.01 µM (SR) was 96%. It also gave a growth at 0.01 µM (HCC 2998) of 95%, a growth at 0.1 µM (HCT-116) of 97% and a growth at 1 µM (Hs-578T) of 81%. It also gave a GI50 (MCF7; read-out: GI50) of 5.71 µM, an LC50 (MCF7; read-out: LC50) of over 100 µM and a TGI (MCF7; read-out: TGI) of over 100 µM. The GI50 (MCF7; read-out: pGI50 (converted)) was 8.71 µM, the LC50 (MCF7; read-out: pLC50 (converted)) was over 100 µM and the TGI (MCF7; read-out: pTGI (converted)) was over 100 µM. It also gave a growth at 1 µM (BT-549) of 59%, a growth at 1 µM (HCT-15 [2]) of 52% and a growth at 100 µM (SNB-75) of 18%. It also gave a growth at 100 µM (786-0) of -30%, a growth at 1 µM (RPMI-8226) of 59% and a GI50 (DU-145; read-out: GI50) of over 100 µM. For the same compound, the CC50 (DU-145; [9]) was over 100 µM, the TGI (DU-145; read-out: TGI) was over 100 µM and the GI50 (DU-145; read-out: pGI50 (converted)) was over 100 µM. It also gave a CC50 (DU-145; [10]) of over 100 µM, a TGI (DU-145; read-out: pTGI (converted)) of over 100 µM and a growth at 1 µM (SF-268 [3]) of 93%. It also gave a growth at 0.1 µM (UACC-257) of 97%, a growth at 0.1 µM (OVCAR-3 [4]) of 107% and a growth at 1 µM (U-251) of 78%. For the same compound, the growth at 0.1 µM (NCI-H460) was 102%, the growth at 0.01 µM (T47D) was 94% and the growth at 0.01 µM (HT-29) was 100%. It also gave a growth at 1 µM (HOP-62) of 107%, a growth at 10 µM (NCI-H522) of 52.7% and a growth at 100 µM (HCT-15 [5]) of 5%. It also gave a growth at 100 µM (M14) of 5%, a growth at 0.1 µM (NCI-H226) of 98% and a growth at 100 µM (UO-31) of 17%. It also gave a growth at 100 µM (OVCAR-3 [6]) of 44%, a growth at 100 µM (COLO 205) of 38% and a growth at 0.1 µM (SF-268 [7]) of 94%. The GI50 (SF-295 [8]; read-out: GI50) was 2.71 µM, the CC50 (SF-295 [8]; [9]) was over 100 µM and the TGI (SF-295 [8]; read-out: TGI) was 14.8 µM. The GI50 (SF-295 [8]; read-out: pGI50 (converted)) was 2.19 µM, the CC50 (SF-295 [8]; [10]) was over 100 µM and the TGI (SF-295 [8]; read-out: pTGI (converted)) was 14.8 µM.

From ChEMBL document CHEMBL4308841, “Synthesis, in vitro antiproliferative activity, and kinase inhibitory effects of pyrazole-containing diarylureas and diarylamides” (Eur J Med Chem, 2018)
